How the values were obtained:
Tagia sp. = settings: chronic/long-term; duration: 56 days; reproduction
Folsomia candida = settings: chronic/long-term; duration: 28 days; reproduction
Apis mellifera = settings: acute, duration: 24 hours, mortality
Bibionidae = settings: chronic/long-term; duration: 28 days
Neomysis kadiakensis = settings: acute; duration: 96 hours; mortality
Anas platyrhynchos = settings: oral
Daphnia magna = settings: chronic/long-term; duration: 21 days

CC[C@H](C)[C@H]1O[C@]2(C=C[C@@H]1C)C[C@@H]1C[C@@H](C/C=C(\C)[C@@H](O[C@H]3C[C@H](OC)[C@@H](O[C@H]4C[C@H](OC)[C@@H](O)[C@H](C)O4)[C@H](C)O3)[C@@H](C)/C=C/C=C3\CO[C@@H]4[C@H](O)C(C)=C[C@@H](C(=O)O1)[C@]34O)O2.CO[C@H]1C[C@H](O[C@H]2[C@H](C)O[C@@H](O[C@@H]3/C(C)=C/C[C@@H]4C[C@@H](C[C@]5(C=C[C@H](C)[C@@H](C(C)C)O5)O4)OC(=O)[C@@H]4C=C(C)[C@@H](O)[C@H]5OC/C(=C\C=C\[C@@H]3C)[C@]54O)C[C@@H]2OC)O[C@@H](C)[C@@H]1O [Abamectin]
NOEC (Tagia sp.): < 0.036 mg/kg | NOEC (Folsomia candida): 0.04 mg/kg | LD50 (Apis mellifera; dermal): 0.001 µg/piece | LD50 (Apis mellifera; oral, unspecified): 0.004 µg/piece | NOEC (Bibionidae): 3.3 µg/kg | LC50 (Neomysis kadiakensis): 0.02 ng/mL | LC50 (Oncorhynchus mykiss; acute, duration: 96 hours, mortality): 2.5 ng/mL | NOEC (Oncorhynchus mykiss; chronic/long-term, duration: 72 days): 0.52 µg/L | LD50 (Anas platyrhynchos; acute, unspecified, mortality): 26 mg/kg-day | NOEC (Anas platyrhynchos; reproductive, feed): 6 mg/kg | NOEC (Daphnia magna): 0.0067 µg/L | LD50 (Rattus norvegicus; acute, oral, M, mortality): 8.7 mg/kg-day | NOAEL (Rattus norvegicus; developmental, development): 0.12 mg/kg-day

Reference: EPA's ToxValDB 9.5 (doi:10.2903/j.efsa.2020.6227)
